Data published in patent US9399647B2, “Proteasome activity modulating compounds” (Proteostasis Therapeutics, Inc., priority 2012, dated 2016).
pIC50: −log10 of the molar value.

Molecular target: USP14 (Homo sapiens, UniProt P54578)
Assay: USP14 inhibition assay
Assay type: biochemical
Settings: not given
Source text: The IC50 values in the Table below represent the average value from three experimental determinations.
These IC50 values represent the average value from three experimental determinations.

Chain of USP14 (P54578 whole entry): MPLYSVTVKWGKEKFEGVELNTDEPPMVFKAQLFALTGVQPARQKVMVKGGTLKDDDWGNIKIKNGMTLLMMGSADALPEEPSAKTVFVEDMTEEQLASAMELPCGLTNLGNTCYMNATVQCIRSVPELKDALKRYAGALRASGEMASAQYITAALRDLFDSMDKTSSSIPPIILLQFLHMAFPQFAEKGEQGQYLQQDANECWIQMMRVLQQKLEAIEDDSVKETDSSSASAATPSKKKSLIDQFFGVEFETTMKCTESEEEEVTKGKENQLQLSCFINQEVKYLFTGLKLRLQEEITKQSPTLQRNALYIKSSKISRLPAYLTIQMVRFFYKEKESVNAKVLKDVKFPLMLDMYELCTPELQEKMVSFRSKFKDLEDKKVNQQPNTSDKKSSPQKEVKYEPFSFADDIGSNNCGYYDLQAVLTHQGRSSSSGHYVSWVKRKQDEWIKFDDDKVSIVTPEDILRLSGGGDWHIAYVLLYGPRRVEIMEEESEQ
Chain of USP14 (Q13200 whole entry partner): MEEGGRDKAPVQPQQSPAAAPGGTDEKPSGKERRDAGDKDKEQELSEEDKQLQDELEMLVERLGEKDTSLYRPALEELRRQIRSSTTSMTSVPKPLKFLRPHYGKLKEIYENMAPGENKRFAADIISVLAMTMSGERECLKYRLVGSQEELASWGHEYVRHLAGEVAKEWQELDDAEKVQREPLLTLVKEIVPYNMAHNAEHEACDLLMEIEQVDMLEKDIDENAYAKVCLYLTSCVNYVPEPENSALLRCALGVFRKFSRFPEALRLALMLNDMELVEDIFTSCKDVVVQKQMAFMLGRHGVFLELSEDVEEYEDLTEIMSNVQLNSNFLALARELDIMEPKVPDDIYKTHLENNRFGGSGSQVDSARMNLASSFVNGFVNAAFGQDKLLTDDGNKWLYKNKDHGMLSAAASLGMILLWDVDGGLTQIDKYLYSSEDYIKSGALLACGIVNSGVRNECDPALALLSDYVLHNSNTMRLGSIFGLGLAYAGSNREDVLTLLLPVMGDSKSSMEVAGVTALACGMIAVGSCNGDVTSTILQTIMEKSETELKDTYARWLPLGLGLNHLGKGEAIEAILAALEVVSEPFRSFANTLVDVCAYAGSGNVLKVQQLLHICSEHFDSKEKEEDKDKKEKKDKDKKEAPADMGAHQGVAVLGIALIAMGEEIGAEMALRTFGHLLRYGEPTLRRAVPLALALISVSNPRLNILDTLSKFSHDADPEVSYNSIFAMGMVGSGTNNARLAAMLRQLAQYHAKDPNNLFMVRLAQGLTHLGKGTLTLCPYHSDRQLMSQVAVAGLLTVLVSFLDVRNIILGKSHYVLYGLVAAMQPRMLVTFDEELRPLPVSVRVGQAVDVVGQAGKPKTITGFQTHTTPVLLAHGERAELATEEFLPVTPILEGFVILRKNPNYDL
Chain of USP14 (P35998 whole entry partner): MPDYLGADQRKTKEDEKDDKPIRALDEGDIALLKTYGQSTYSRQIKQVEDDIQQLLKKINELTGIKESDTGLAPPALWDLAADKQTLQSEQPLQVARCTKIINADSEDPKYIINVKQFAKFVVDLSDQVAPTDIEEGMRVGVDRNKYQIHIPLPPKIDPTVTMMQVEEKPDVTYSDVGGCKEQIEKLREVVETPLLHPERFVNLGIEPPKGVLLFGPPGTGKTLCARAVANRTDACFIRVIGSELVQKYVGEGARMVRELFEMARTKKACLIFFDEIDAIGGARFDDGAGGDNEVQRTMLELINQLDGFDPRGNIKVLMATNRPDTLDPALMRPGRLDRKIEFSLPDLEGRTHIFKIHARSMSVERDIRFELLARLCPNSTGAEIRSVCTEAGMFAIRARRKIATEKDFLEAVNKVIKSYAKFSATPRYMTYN

Q: How did the pIC50 turn out when CN(c1nc(CC(=O)N2CCC(=O)CC2)nc2sc3c(c12)CCCC3)C1CC1 [Compound 14, 1-{2-[4-(Cyclopropyl-methyl-amino)-5,6,7,8-tetrahydro-benzo[4,5]thieno[2,3-d]pyrimidin-2-yl]-acetyl}-piperidin-4-one] was run?
A: > 6.00

Same assay, conditions: average value from three experimental determinations; read-out: USP14 IC50

Q: How did the pIC50 turn out when CN(c1nc(CC(=O)O)nc2sc3c(c12)CCCC3)C1CC1 [Compound 2, 2-(4-(Cyclopropyl(methyl)amino)-5,6,7,8-tetrahydrobenzo[4,5]thieno[2,3-d]pyrimidin-2-yl)acetic acid] was run?
A: 5.80

Same assay, conditions: average value from three experimental determinations; reported as potency bands; read-out: IC50 (USP14 inhibition)

Q: How did the pIC50 turn out when CN(C)C1CCN(C(=O)Cc2nc(N(C)C3CC3)c3c4c(sc3n2)CCCC4)C1 (centres unmarked) [Compound 8, 2-[4-(Cyclopropyl-methyl-amino)-5,6,7,8-tetrahydro-benzo[4,5]thieno[2,3-d]pyrimidin-2-yl]-1-(3-dimethylamino-pyrrolidin-1-yl)-ethanone] was run?
A: > 6.00

Q: CN(c1nc(CC(=O)NCc2ccccn2)nc2sc3c(c12)CCCC3)C1CC1 [Compound 18] was tested. Which pIC50 did it give?
A: 5.30 to 6.00

Q: With CN(c1nc(CC(=O)NCCc2ccccn2)nc2sc3c(c12)CCCC3)C1CC1 [Compound 17] as the compound, how does the pIC50 read?
A: 5.30 to 6.00

Q: How did the pIC50 turn out when CCOC(=O)Cc1nc(N(C)CC)c2c3c(sc2n1)CCCC3 [Compound 40, [4-(Ethyl-methyl-amino)-5,6,7,8-tetrahydro-benzo[4,5]thieno[2,3-d]pyrimidin-2-yl]-acetic acid ethyl ester] was run?
A: < 5.30

Q: CN(c1nc(CC(=O)O)nc2sc3c(c12)CCCCC3)C1CC1 [Compound 52, [4-(Cyclopropyl-methyl-amino)-6,7,8,9-tetrahydro-5H-10-thia-1,3-diazabenz[a]azulen-2-yl]-acetic acid] was tested. Which pIC50 did it give?
A: < 5.30

Q: How did the pIC50 turn out when CN(c1nc(CC(=O)N2CC[C@@H](N(C)C)C2)nc2sc3c(c12)CCCC3)C1CC1 [Compound 30, 2-[4-(Cyclopropyl-methyl-amino)-5,6,7,8-tetrahydro-benzo[4,5]thieno[2,3-d]pyrimidin-2-yl]-1-((R)-3-dimethylamino-pyrrolidin-1-yl)-ethanone] was run?
A: > 6.00

Q: How did the pIC50 turn out when CN(C)C(=O)Cc1nc(N(C)C)c2c3c(sc2n1)CCCC3 [Compound 43, 2-(4-Dimethylamino-5,6,7,8-tetrahydro-benzo[4,5]thieno[2,3-d]pyrimidin-2-yl)-N,N-dimethyl-acetamide] was run?
A: 5.30 to 6.00

Q: How did the pIC50 turn out when CN(c1nc(CC(=O)NCCC(C)(C)O)nc2sc3c(c12)CCCC3)C1CC1 [Compound 35, 2-[4-(Cyclopropyl-methyl-amino)-5,6,7,8-tetrahydro-benzo[4,5]thieno[2,3-d]pyrimidin-2-yl]-N-(3-hydroxy-3-methyl-butyl)-acetamide] was run?
A: 5.30 to 6.00

Q: CN(c1nc(CC(=O)N2CCC(C(N)=O)CC2)nc2sc3c(c12)CCCC3)C1CC1 [Compound 31, 1-{2-[4-(Cyclopropyl-methyl-amino)-5,6,7,8-tetrahydro-benzo[4,5]thieno[2,3-d]pyrimidin-2-yl]-acetyl}-piperidine-4-carboxylic acid amide] was tested. Which pIC50 did it give?
A: > 6.00

Q: CCN(C)c1nc(CC(=O)O)nc2sc3c(c12)CCCC3 [Compound 45, [4-(Ethyl-methyl-amino)-5,6,7,8-tetrahydro-benzo[4,5]thieno[2,3-d]pyrimidin-2-yl]-acetic acid] was tested. Which pIC50 did it give?
A: < 5.30

Q: With CN(c1nc(COc2cccnc2)nc2sc3c(c12)CCCC3)C1CC1 [Compound 50, Cyclopropyl-methyl-[2-(pyridine-3-yloxymethyl)-5,6,7,8-tetrahydro-benzo[4,5]thieno[2,3-d]pyrimidin-4-yl]-amine] as the compound, how does the pIC50 read?
A: < 5.30

Q: CC(C)N(C)c1nc(CC(=O)O)nc2sc3c(c12)CCCC3 [Compound 46, [4-(Isopropyl-methyl-amino)-5,6,7,8-tetrahydro-benzo[4,5]thieno[2,3-d]pyrimidin-2-yl]-acetic acid] was tested. Which pIC50 did it give?
A: < 5.30

Q: How did the pIC50 turn out when CN(c1nc(CC(=O)N2CCC2)nc2sc3c(c12)CCCC3)C1CC1 [Compound 15, 1-(Azetidin-1-yl)-2-(4-(cyclopropyl(methyl)amino)-5,6,7,8-tetrahydrobenzo[4,5]thieno[2,3-d]pyrimidin-2-yl)ethanone] was run?
A: > 6.00

Q: How did the pIC50 turn out when CN(c1nc(CC(N)=O)nc2sc3c(c12)CCCC3)C1CC1 [Compound 5, 2-(4-(Cyclopropyl(methyl)amino)-5,6,7,8-tetrahydrobenzo[4,5]thieno[2,3-d]pyrimidin-2-yl)acetamide] was run?
A: > 6.00

Q: How did the pIC50 turn out when CN(C)C(=O)Cc1nc(N(C)C2CC2)c2c3c(sc2n1)CCCCC3 [Compound 53, 2-[4-(Cyclopropyl-methyl-amino)-6,7,8,9-tetrahydro-5H-10-thia-1,3-diaza-benz[a]azulen-2-yl]-N,N-dimethyl-acetamide] was run?
A: 5.30 to 6.00
